Experimental data: patent US20060276844A1, “Ingestible device for nitric oxide production in tissue” (priority 2005, published 2006)

Legend:
[1] = tested on: rat jejunum; test: NO-signal-enhanced drug permeation in rat jejunum in vitro, with NOS inhibitor L-NAME (FIGS. 2-3); format: in vitro ADME; settings: 1 mM L-NAME plus NO signal (5 mA, 1 ms, 18 Hz), rat jejunum segments
Excerpt: Reference is made to FIGS. 2 and 3, which are graphs showing in vitro experimental results measured in accordance with an embodiment of the present invention. These experiments assessed the effect of the application of an electrical signal configured to enhance NO-associated drug permeation, which is inhibited by non-specific NOS inhibitor NG-Nitro-L-Arginine methyl ester (L-NAME) in rat jejunum in vitro. The NO-releasing electrical signal (hereinbelow, the “NO signal”) was applied with the following parameters: an amplitude of 5 mA, a pulse width of 1 ms, and a frequency of 18 Hz. In the experiment shown in FIG. 2, 1 mg/ml octreotide was applied to 11 segments of rat jejunum. The NO signal alone was applied to six of the segments, 1 mM L-NAME alone was applied to two of the segments, and the NO signal and 1 mM L-NAME were applied to three of the segments. In the experiment shown in FIG. 3, 1 mg/ml leuprolide was applied to 14 segments of rat jejunum. The NO signal alone was applied to three of the segments, 1 mM L-NAME alone was applied to two of the segments, the NO signal and 1 mM L-NAME were applied to three of the segments, and no treatment was applied to the remaining six segments.

[2] = tested on: rat jejunum; test: Octreotide permeation in rat jejunum in vitro: electrical stimulation versus NO donor (FIG. 4); format: in vitro ADME
Method: FIG. 4 is a graph showing in vitro experimental results measured in accordance with an embodiment of the present invention. In this experiment, the permeation-enhancing effect of electrical stimulation in rat jejunum in vitro was compared with the effect of an NO donor, molsidomine (SIN-10) (exogenous nitric oxide). The NO signal alone was applied to six segments of rat jejunum, 1 mM SIN-10 alone was applied to four segments, the NO signal and 1 mM SIN-10 were applied to three segments, and no treatment was applied to six segments.

SMILES | effect on NO-signal-enhanced drug permeation (octreotide) ([1]; FIG. 2, 1 mg/ml octreotide) | effect on NO-signal-enhanced drug permeation (leuprolide) ([1]; FIG. 3, 1 mg/ml leuprolide) | rate of octreotide transepithelial transport compared with electrically-induced absorption ([2]; 1 mM SIN-10 alone) | effect of combination with electrical stimulation on enhanced permeation of octreotide, versus electrical stimulation alone ([2]; NO signal plus 1 mM SIN-10)
COC(=O)[C@@H](N)CCCNC(=N)N[N+](=O)[O-] [L-NAME, NG-Nitro-L-Arginine methyl ester] | nearly prevented | nearly prevented | – | –
CCOC(=O)[N-]c1cn(N2CCOCC2)n[o+]1 [SIN-10, molsidomine] | – | – | similar | did not augment
